Values of other authors in US8486463B1, “Cosmetic composition comprising aloe vera and caprylyl salicylic acid and method of making” (L'Oreal, priority 2012, dated 2013).

Settings: based on temperature and purity level

Q: Which pH does the source give for O [water] here?
A: 7

Q: And the surface tension?
A: 55.73 dyne/cm
